Key:
[1] = target: T1, glucocorticoid receptors (endogenous) in SW1353/MMTV-5 cells (Homo sapiens, UniProt P04150); test: GR functional assay using SW1353/MMTV-5 cells (MMTV-GRE luciferase reporter); type: cell-based
T1 construct: contains endogenous glucocorticoid receptors; endogenous in cells; host or cells: SW1353/MMTV-5 (human chondrosarcoma, stably transfected with pMAMneo-Luc reporter)
T1 sequence (P04150 1-777): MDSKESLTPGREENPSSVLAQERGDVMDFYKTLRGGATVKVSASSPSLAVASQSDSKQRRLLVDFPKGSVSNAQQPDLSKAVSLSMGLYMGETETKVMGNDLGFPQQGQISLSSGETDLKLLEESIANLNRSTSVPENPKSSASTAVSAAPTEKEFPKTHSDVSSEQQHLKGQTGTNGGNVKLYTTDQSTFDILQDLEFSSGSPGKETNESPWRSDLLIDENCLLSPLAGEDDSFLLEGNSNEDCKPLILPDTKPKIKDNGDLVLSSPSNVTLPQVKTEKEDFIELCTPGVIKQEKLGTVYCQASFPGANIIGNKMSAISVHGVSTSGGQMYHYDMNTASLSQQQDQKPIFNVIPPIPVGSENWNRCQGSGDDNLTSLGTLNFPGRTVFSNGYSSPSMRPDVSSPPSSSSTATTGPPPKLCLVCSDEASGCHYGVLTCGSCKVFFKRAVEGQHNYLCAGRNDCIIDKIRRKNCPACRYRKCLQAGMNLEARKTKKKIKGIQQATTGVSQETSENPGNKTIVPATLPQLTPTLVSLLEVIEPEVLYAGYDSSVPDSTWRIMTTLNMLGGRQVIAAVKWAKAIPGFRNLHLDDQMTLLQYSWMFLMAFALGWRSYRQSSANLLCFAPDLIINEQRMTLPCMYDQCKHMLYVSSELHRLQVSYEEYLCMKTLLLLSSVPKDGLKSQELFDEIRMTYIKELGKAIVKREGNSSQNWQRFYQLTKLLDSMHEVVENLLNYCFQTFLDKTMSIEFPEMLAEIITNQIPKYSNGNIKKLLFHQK
Experimental: SW1353/MMTV-5 is an adherent human chondrosarcoma cell line that contains endogenous glucocorticoid receptors. It was transacted with a plasmid (pMAMneo-Luc) encoding firefly luciferase located behind a glucocorticoid-responsive element (GRE) derived from a viral promoter (long terminal repeat of mouse mammary tumor virus). A stable cell line SW1353/MMTV-5 was selected with geneticin, which was required to maintain this plasmid.
SW1353/MMTV-5 cells were distributed in 96-well plates and incubated in medium (without geneticin) for 24 hrs.

[2] = target: T2, Human Recombinant Glucocorticoid Receptor (Homo sapiens, UniProt P04150); test: Glucocorticoid receptor binding displacement assay with 3H-dexamethasone; conditions: displacement of 2.5 nM 3H-dexamethasone, 2.5 hrs at 4° C.; Ki from IC50 by Cheng-Prusoff; read-out: GR Binding Ki
T2 construct: This GR was a full-length steroid hormone receptor; host or cells: recombinant baculovirus-infected insect cells
T2 sequence (P04150 1-777): T1 sequence (P04150 1-777)
Experimental: Binding protocol: Compounds were tested in a binding displacement assay using human recombinant glucocorticoid receptor with ^3H-dexamethasone as the ligand. The source of the receptor was recombinant baculovirus-infected insect cells. This GR was a full-length steroid hormone receptor likely to be associated with heat-shock and other endogenous proteins.
For the IC50 determinations, test compounds were tested at 6 concentrations in duplicate. Test compounds were diluted from 10 mM stock in 100% DMSO. The tested solutions were prepared at 2× final assay concentration in 2% DMSO/assay buffer.
All reagents and the assay plate were kept on ice during the addition of reagents. The reagents were added to wells of a v-bottomed polypropylene plate in the following order: 25 μl of 10 nM 3H-dexamethasone solution, 50 μl of TB/NSB/compound solution and 25 μl of 2 nM GR solution. After the additions, the incubation mixture was mixed and incubated for 2.5 hrs at 4° C.
Alter 2.5 hrs incubation, unbound counts were removed with dextran coated charcoal (DCC) as follows: 15 μl of DCC solution (10% DCC in assay buffer) was added to all wells and mixed (total volume 115 μl). The plate was centrifuged at 4000 rpm for 10 minutes at 4° C. 75 μl of the supernatants was carefully pipetted into an optiplate. 150 μl of scintillation cocktail were added (Microscint-40, Perkin Elmer). The plate was vigorously shaken for approx. 10 minutes and counted on Topcount.
The IC50 values were converted to Ki (the inhibition constant) using the Cheng-Prusoff equation.
Reagents: Assay buffer: 10 mM potassium phosphate buffer pH 7.6 containing 5 mM DTT, 10 mM sodium molybdate, 100 μM EDTA and 0.1% BSA.

## O=c1[nH]c(C2=CCC(c3ccccc3)CC2)c(Cc2ccccc2)c(=O)[nH]1 (stereo not shown) [Compound 2a, 5-Benzyl-6-(4-phenylcyclohex-1-enyl)-1H-pyrimidine-2,4-dione]
[1]
  Ki: > 100 nM
[2]
  Ki: > 10 nM

## Cc1cccc(Cc2c(C3=CCC(c4ccccc4)CC3)[nH]c(=O)[nH]c2=O)c1 (stereo not shown) [Compound 2b]
[1]
  Ki: 50 to 100 nM
[2]
  Ki: 5 to 10 nM

## O=c1[nH]c(C2=CCC(c3ccccc3)CC2)c(Cc2ccccc2Cl)c(=O)[nH]1 (stereo not shown) [Compound 2c]
[1]
  Ki: > 100 nM
[2]
  Ki: 5 to 10 nM

## Cc1ccccc1Cc1c(C2=CCC(c3ccccc3)CC2)[nH]c(=O)[nH]c1=O (stereo not shown) [Compound 2d]
[1]
  Ki: > 100 nM
[2]
  Ki: > 10 nM

## O=c1[nH]c(=O)c(Cc2ccccc2)c([C@H]2CC[C@H](c3ccccc3)CC2)[nH]1 [Compound 3a, (E)-5-Benzyl-6-(4-phenylcyclohexyl)-1H-pyrimidine-2,4-dione]
[1]
  Ki: < 50 nM
[2]
  Ki: < 5 nM

## O=c1[nH]c(=O)c(Cc2ccc(F)c(Cl)c2)c([C@H]2CC[C@H](c3ccccc3)CC2)[nH]1 [Compound 3aa]
[1]
  Ki: < 50 nM
[2]
  Ki: > 10 nM

## O=c1[nH]c(=O)c(Cc2cccc(C(F)(F)F)c2)c([C@H]2CC[C@H](c3ccccc3)CC2)[nH]1 [Compound 3b, (E)-6-(4-Phenylcyclohexyl)-5-(3-trifluoromethylbenzyl)-1H-pyrimidine-2,4-dione]
[1]
  Ki: < 50 nM
[2]
  Ki: 5 to 10 nM

## O=c1[nH]c(=O)c(Cc2ccccc2)c([C@H]2CC[C@@H](c3ccccc3)CC2)[nH]1 [Compound 3bb]
[1]
  Ki: > 100 nM
[2]
  Ki: > 10 nM

## O=c1[nH]c(=O)c(Cc2ccccc2Cl)c([C@H]2CC[C@H](c3ccccc3)CC2)[nH]1 [Compound 3c]
[1]
  Ki: < 50 nM
[2]
  Ki: < 5 nM

## Nc1cccc(Cc2c(=O)[nH]c(=O)[nH]c2[C@H]2CC[C@H](c3ccccc3)CC2)n1 [Compound 3cc]
[1]
  Ki: > 100 nM
[2]
  Ki: > 10 nM

## O=c1[nH]c(=O)c(Cc2cccc(Cl)c2Cl)c([C@H]2CC[C@H](c3ccccc3)CC2)[nH]1 [Compound 3d]
[1]
  Ki: < 50 nM
[2]
  Ki: < 5 nM

## O=c1[nH]c(=O)c(Cc2c(Cl)cccc2Cl)c([C@H]2CC[C@H](c3ccccc3)CC2)[nH]1 [Compound 3e]
[1]
  Ki: 50 to 100 nM
[2]
  Ki: 5 to 10 nM

## O=c1[nH]c(=O)c(Cc2ccc(Cl)cc2Cl)c([C@H]2CC[C@H](c3ccccc3)CC2)[nH]1 [Compound 3f]
[1]
  Ki: < 50 nM
[2]
  Ki: 5 to 10 nM

## O=c1[nH]c(=O)c(Cc2cc(Cl)ccc2Cl)c([C@H]2CC[C@H](c3ccccc3)CC2)[nH]1 [Compound 3g]
[1]
  Ki: < 50 nM
[2]
  Ki: < 5 nM

## Cc1cccc(Cc2c(=O)[nH]c(=O)[nH]c2[C@H]2CC[C@H](c3ccccc3)CC2)c1 [Compound 3h, (E)-5-(3-Methylbenzyl)-6-(4-phenylcyclohexyl)-1H-pyrimidine-2,4-dione]
[1]
  Ki: < 50 nM
[2]
  Ki: < 5 nM

## Cc1cccc(Cc2c(=O)[nH]c(=O)[nH]c2[C@H]2CC[C@H](c3ccccc3)CC2)n1 [Compound 3j]
[1]
  Ki: 50 to 100 nM
[2]
  Ki: > 10 nM

## O=c1[nH]c(=O)c(Cc2ncccn2)c([C@H]2CC[C@H](c3ccccc3)CC2)[nH]1 [Compound 3k]
[1]
  Ki: > 100 nM
[2]
  Ki: > 10 nM

## O=c1[nH]c(=O)c(Cc2cccc(C(F)(F)F)n2)c([C@H]2CC[C@H](c3ccccc3)CC2)[nH]1 [Compound 3l]
[1]
  Ki: < 50 nM
[2]
  Ki: 5 to 10 nM

## O=c1[nH]c(=O)c(Cc2ncccc2Cl)c([C@H]2CC[C@H](c3ccccc3)CC2)[nH]1 [Compound 3m]
[1]
  Ki: > 100 nM
[2]
  Ki: > 10 nM

## Cc1cc(Cc2c(=O)[nH]c(=O)[nH]c2[C@H]2CC[C@H](c3ccccc3)CC2)ccn1 [Compound 3n]
[1]
  Ki: > 100 nM
[2]
  Ki: > 10 nM

## O=c1[nH]c(=O)c(Cc2nccs2)c([C@H]2CC[C@H](c3ccccc3)CC2)[nH]1 [Compound 3o]
[1]
  Ki: > 100 nM
[2]
  Ki: > 10 nM

## O=c1[nH]c(=O)c(Cc2ccccn2)c([C@H]2CC[C@H](c3ccccc3)CC2)[nH]1 [Compound 3p]
[1]
  Ki: > 100 nM
[2]
  Ki: > 10 nM

## Cc1ccnc(Cc2c(=O)[nH]c(=O)[nH]c2[C@H]2CC[C@H](c3ccccc3)CC2)c1 [Compound 3q]
[1]
  Ki: < 50 nM
[2]
  Ki: > 10 nM

## O=c1[nH]c(=O)c(Cc2cc(C(F)(F)F)ccn2)c([C@H]2CC[C@H](c3ccccc3)CC2)[nH]1 [Compound 3r]
[1]
  Ki: 50 to 100 nM
[2]
  Ki: > 10 nM

## CCc1ccccc1Cc1c(=O)[nH]c(=O)[nH]c1[C@H]1CC[C@H](c2ccccc2)CC1 [Compound 3s]
[1]
  Ki: 50 to 100 nM
[2]
  Ki: 5 to 10 nM

## Cc1csc(Cc2c(=O)[nH]c(=O)[nH]c2[C@H]2CC[C@H](c3ccccc3)CC2)n1 [Compound 3t]
[1]
  Ki: > 100 nM
[2]
  Ki: > 10 nM

## COc1ccccc1Cc1c(=O)[nH]c(=O)[nH]c1[C@H]1CC[C@H](c2ccccc2)CC1 [Compound 3u]
[1]
  Ki: 50 to 100 nM
[2]
  Ki: < 5 nM

## CN(C)c1cccc(Cc2c(=O)[nH]c(=O)[nH]c2[C@H]2CC[C@H](c3ccccc3)CC2)n1 [Compound 3v]
[1]
  Ki: < 50 nM
[2]
  Ki: 5 to 10 nM

## O=c1[nH]c(=O)c(Cc2ccc(F)c(F)c2)c([C@H]2CC[C@H](c3ccccc3)CC2)[nH]1 [Compound 3w]
[1]
  Ki: 50 to 100 nM
[2]
  Ki: > 10 nM

## O=c1[nH]c(=O)c(Cc2ccc(F)cc2Cl)c([C@H]2CC[C@H](c3ccccc3)CC2)[nH]1 [Compound 3x]
[1]
  Ki: < 50 nM
[2]
  Ki: > 10 nM

## O=c1[nH]c(=O)c(Cc2ccc(F)cc2F)c([C@H]2CC[C@H](c3ccccc3)CC2)[nH]1 [Compound 3y]
[1]
  Ki: 50 to 100 nM
[2]
  Ki: 5 to 10 nM

## O=c1[nH]c(=O)c(Cc2cccc(F)c2F)c([C@H]2CC[C@H](c3ccccc3)CC2)[nH]1 [Compound 3z]
[1]
  Ki: < 50 nM
[2]
  Ki: < 5 nM

## Cc1cccc(Cc2c(=O)[nH]c(=S)[nH]c2[C@H]2CC[C@H](c3ccccc3)CC2)c1 [Compound 12g, (E)-6-(4-Phenylcyclohexyl)-2-thioxo-5-(3-methylbenzyl)-2,3-dihydro-1H-pyrimidin-4-one]
[1]
  Ki: > 100 nM
[2]
  Ki: > 10 nM

## Cc1cccc(Cc2c(=O)n(C)c(=O)[nH]c2[C@H]2CC[C@H](c3ccccc3)CC2)c1 [Compound 13a, (E)-3-Methyl-5-(3-methylbenzyl)-6-(4-phenylcyclohexyl)-1H-pyrimidine-2,4-dione]
[1]
  Ki: < 50 nM
[2]
  Ki: 5 to 10 nM

## Cc1cccc(Cc2c(=O)n(CCN(C)C)c(=O)[nH]c2[C@H]2CC[C@H](c3ccccc3)CC2)c1 [Compound 13b]
[1]
  Ki: > 100 nM
[2]
  Ki: > 10 nM

## O=c1[nH]c([C@H]2CC[C@H](c3ccccc3)CC2)c(Cc2cccc(Cl)c2Cl)c(=O)n1CCCN1CCOCC1 [Compound 13c]
[1]
  Ki: > 100 nM
[2]
  Ki: > 10 nM

## Cn1c(=O)[nH]c([C@H]2CC[C@H](c3ccccc3)CC2)c(Cc2cccc(C(F)(F)F)c2)c1=O [Compound 13d, (E)-3-Methyl-6-(4-phenyl-cyclohexyl)-5-(3-trifluoromethyl-benzyl)-1H-pyrimidine-2,4-dione]
[1]
  Ki: > 100 nM
[2]
  Ki: 5 to 10 nM

## O=c1[nH]c([C@H]2CC[C@H](c3ccccc3)CC2)c(Cc2cccc(C(F)(F)F)c2)c(=O)n1CCO [Compound 13f, (E)-3-(2-Hydroxy-ethyl)-6-(4-phenyl-cyclohexyl)-5-(3-trifluoromethyl-benzyl)-1H-pyrimidine-2,4-dione]
[1]
  Ki: > 100 nM
[2]
  Ki: > 10 nM
